Data taken from patent publication US9260417B2, “Therapeutic methods and compositions involving allosteric kinase inhibition” (AMITECH THERAPEUTIC SOLUTIONS, INC., priority 2010, dated 2016).

Key:
[1] = target: PFTK1 (Homo sapiens (Human), UniProt O94921); assay: KINOMEscan competitive binding assay; settings: 10 uM
[2] = target: KIT(V559D, V654A) (Homo sapiens (Human), UniProt P10721, V559D/V654A); assay: KINOMEscan competitive binding assay; settings: 10 uM
Source text: (§1) In vitro kinase screen and competitive binding assay. Sorafenib as well as test compounds were submitted to Invitrogen and screened using their SelectScreen™ Profiling Service.

[3] = target: RIOK3 (Homo sapiens (Human), UniProt O14730); assay: KINOMEscan competitive binding assay; settings: 10 uM
Source text: as §1

[4] = target: FLT3(D835H) (Homo sapiens (Human), UniProt P36888, D835H); assay: KINOMEscan competitive binding assay; settings: 10 uM
Source text: as §1

[5] = target: CDK9 (Homo sapiens (Human), UniProt P50750); assay: KINOMEscan competitive binding assay; settings: 10 uM
Source text: as §1

[6] = target: DYRK1B (Homo sapiens (Human), UniProt Q9Y463); assay: KINOMEscan competitive binding assay; settings: 10 uM
[7] = test system: M21; assay: Tumor cell viability; assay type: cell-based; settings: Melanoma M21
Description: (§2) For XTT assays, cells were grown in 96-well plates overnight and all assays were conducted in growth medium will full serum and additives. Compounds were serially diluted in DMSO and then further diluted into the medium to give the appropriate concentration while minimizing precipitation associated with serial diluting in medium alone Inhibitors were added for 72 h and cell viability was quantified at 450 nm after the addition of 1 mg/ml XTT solution (Sigma-Aldrich) in phenol-red free DMEM medium containing […] (Sigma-Aldrich). Dose-response curves were plotted using GraphPad Prism software and EC50s were calculated using this program.

[8] = test system: CT26; assay: Tumor cell viability; assay type: cell-based; settings: Colon Carcinoma CT26
Description: as §2

[9] = test system: M21L; assay: Tumor cell viability; assay type: cell-based; settings: Melanoma M21L
Description: as §2

[10] = test system: A431; assay: Tumor cell viability; assay type: cell-based; settings: Epithelial Carcinoma A431, HER1
Description: as §2

[11] = test system: tumor lines; assay: Tumor cell viability, summary over tumor lines; assay type: cell-based; settings: summary of Table 5
[12] = test system: XPA-1-RFP pancreatic tumor xenografts; assay: Orthotopic pancreatic carcinoma model; assay type: in vivo, mice; settings: 50 mg/kg
Description: Drug treatments were started 3 days after surgical orthotopic implantation (SOI) of XPA1-RFP tumors and tumor progression was monitored every 3 days by whole animal imaging. Scale bar=10 mm. […] Tumor surface area was calculated by adding the total pixels of both the ventral and lateral images of the tumor. *p=0.034. (FIG. 5C) Average body weight of the mice measured each day of whole animal imaging described in FIGS. 5A and 5B above. (FIG. 5D) Total weights of resected primary tumors on day 15 post (SOI), *p=0.022. (FIG. 5E) Representative fluorescent images of endothelial GFP expression (GFP expression driven by the Nestin promoter) within the XPA1-RFP tumors after resection. Images taken 15 days post SOI. Scale bar=200 μm. (FIG. 5F) Plot of tumor vessel density from images acquired as in FIG. 5E. Blood vessels imaged as in 5E were converted to length (mm) and normalized to the tumor volume (mm^3), *p=0.01.
Orthotopic human pancreatic cancer xenografts from the pancreatic cancer cell line XPA1-RFP were established in nude mice by surgical orthotopic implantation (SOI). Briefly, subcutaneous XPA1-RFP tumors in the exponential growth phase were harvested and sectioned into 1 mm^3 pieces in serum-free RPMI medium. Mice were anesthetized using 50% ketamine, 38% xylazine and 12% agepromazine maleate injected intramuscularly at a dose of 2 μl/g, and their abdominal wall was sterilized with alcohol. A small incision was then made in the right pararectal line through the skin and peritoneum. The body of the pancreas was exposed and a 1 mm^3 tumor fragment was sutured to the pancreas using a single 8-0 nylon surgical suture (Davis-Geck, Inc. Manati, Puerto Rico). The pancreas was then returned to the abdomen and the peritoneum and skin were closed in two layers using 6-0 vicryl surgical suture.
At day 3 after SOL the animals began treatment with twice-daily IP injections of either compound, 6 (50 mg/kg dose in 200 μl total volume), or vehicle control at 12 hour intervals. […] At day 12 post-SOI the animals were sacrificed and their tumors were excised, weighed, and measured in 3 dimensions in order to calculate tumor volume. The tumor volume was calculated with the formula: volume=height×width×length×0.52. […] The total vessel length for each tumor was measured using Image-J software and converted to vessel density by dividing total tumor vessel length by tumor volume. […]
RFP expressing XPA-1 pancreatic tumor xenografts were implanted into the pancreas of Nestin GFP-mice enabling detection of both developing blood vessels (GFP) and primary tumor (RFP). […] Tumor growth was monitored non-invasively by whole body imaging using the Olympus OV100 Small Animal Imaging System to detect the RFP signal from the tumor implant within the pancreas.

[13] = target: RAF1 (Homo sapiens (Human), UniProt P04049); assay: KINOMEscan competitive binding assay; settings: 10 uM
[14] = test system: XPA1-RFP; assay: Tumor cell viability; assay type: cell-based, human; settings: Pancreatic AC XPA1-RFP, K-Ras
[15] = test system: 1205Lu; assay: Tumor cell viability; assay type: cell-based, human; settings: Melanoma 1205Lu, B-RAF V600E
[16] = target: BRAF (Homo sapiens (Human), UniProt P15056); assay: KINOMEscan competitive binding assay; settings: 10 uM
Description: For the competitive binding assay, test compounds were screened at 10 μM against 70 diverse kinase targets for competitive binding using the KINOMEscan™ technology (Ambit Biosciences) (Karaman, et al. (2008) Nature biotechnology 26:127-132). 11-point Kd curves were determined for hits identified during the initial screen.

[17] = Pharmacokinetic analysis in mice; assay type: in vivo

Chain of RAF1 (P04049 349-609): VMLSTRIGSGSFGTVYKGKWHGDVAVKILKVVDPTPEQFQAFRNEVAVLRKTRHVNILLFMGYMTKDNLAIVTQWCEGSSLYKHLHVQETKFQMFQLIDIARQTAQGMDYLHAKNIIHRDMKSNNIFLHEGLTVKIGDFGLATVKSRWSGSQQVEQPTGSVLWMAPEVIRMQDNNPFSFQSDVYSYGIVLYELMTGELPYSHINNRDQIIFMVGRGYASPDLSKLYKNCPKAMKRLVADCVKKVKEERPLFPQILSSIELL
Chain of DYRK1B (Q9Y463 whole entry): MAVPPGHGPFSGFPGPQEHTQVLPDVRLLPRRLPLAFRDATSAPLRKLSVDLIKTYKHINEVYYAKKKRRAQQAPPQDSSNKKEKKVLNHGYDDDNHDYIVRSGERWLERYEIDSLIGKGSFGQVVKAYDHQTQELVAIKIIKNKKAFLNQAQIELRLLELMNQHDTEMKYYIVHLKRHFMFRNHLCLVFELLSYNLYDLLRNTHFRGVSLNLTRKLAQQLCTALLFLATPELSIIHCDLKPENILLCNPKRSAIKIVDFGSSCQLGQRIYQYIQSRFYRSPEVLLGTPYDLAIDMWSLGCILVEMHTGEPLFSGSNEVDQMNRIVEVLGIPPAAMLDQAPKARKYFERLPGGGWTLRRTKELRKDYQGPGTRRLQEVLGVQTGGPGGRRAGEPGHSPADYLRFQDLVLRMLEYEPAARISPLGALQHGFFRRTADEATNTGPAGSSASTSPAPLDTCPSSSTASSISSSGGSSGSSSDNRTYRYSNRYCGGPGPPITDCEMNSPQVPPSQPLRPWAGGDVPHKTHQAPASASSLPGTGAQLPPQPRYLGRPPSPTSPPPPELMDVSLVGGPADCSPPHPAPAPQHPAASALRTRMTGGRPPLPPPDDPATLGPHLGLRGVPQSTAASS
Chain of CDK9 (P50750 whole entry): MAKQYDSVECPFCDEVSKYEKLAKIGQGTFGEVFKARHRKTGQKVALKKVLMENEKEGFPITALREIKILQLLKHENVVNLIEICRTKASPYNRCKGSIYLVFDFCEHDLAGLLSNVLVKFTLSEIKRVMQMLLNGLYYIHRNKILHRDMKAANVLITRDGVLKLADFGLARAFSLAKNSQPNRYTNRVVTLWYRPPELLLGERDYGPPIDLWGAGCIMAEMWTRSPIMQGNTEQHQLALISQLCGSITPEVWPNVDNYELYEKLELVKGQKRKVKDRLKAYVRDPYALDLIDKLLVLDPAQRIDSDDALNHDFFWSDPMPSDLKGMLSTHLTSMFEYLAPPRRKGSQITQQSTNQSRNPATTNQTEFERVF
Chain of KIT(V559D, V654A) (P10721 26-976 V559D/V654A): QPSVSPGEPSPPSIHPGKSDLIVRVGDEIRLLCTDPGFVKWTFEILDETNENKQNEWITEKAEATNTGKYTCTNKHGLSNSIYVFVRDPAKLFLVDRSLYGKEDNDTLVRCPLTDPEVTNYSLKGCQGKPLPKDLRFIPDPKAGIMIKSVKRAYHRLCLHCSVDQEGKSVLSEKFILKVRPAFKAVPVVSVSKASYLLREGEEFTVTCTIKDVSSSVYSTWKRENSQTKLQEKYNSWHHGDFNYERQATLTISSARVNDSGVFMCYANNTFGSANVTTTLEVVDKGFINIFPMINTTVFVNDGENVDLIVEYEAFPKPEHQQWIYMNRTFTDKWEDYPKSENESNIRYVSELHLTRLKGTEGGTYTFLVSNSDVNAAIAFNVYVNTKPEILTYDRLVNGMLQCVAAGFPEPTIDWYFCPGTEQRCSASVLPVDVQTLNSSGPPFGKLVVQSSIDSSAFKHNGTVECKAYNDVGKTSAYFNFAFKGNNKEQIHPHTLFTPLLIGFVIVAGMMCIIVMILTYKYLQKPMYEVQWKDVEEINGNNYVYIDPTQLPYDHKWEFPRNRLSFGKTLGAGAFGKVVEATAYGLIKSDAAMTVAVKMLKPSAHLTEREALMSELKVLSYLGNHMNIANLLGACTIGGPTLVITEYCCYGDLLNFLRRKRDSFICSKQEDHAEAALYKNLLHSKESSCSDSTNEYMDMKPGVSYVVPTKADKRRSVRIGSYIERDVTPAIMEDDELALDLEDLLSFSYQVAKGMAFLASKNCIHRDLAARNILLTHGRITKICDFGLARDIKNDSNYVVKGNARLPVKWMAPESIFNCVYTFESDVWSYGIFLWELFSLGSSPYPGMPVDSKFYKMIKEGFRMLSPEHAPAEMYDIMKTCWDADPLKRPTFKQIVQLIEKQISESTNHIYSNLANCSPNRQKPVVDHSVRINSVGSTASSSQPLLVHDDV
Chain of PFTK1 (O94921 whole entry): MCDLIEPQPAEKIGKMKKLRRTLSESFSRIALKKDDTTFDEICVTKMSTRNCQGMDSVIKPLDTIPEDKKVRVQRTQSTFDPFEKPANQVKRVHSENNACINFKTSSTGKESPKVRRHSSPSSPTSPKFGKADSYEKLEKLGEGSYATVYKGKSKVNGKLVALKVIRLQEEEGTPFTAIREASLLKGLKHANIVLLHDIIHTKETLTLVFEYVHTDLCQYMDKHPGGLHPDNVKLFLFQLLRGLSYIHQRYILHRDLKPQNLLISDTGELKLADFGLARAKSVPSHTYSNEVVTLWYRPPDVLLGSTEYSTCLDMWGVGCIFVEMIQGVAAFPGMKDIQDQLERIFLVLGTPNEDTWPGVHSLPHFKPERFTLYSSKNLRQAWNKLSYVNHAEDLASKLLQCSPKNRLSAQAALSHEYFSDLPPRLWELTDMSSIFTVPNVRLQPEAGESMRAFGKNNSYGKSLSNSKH
Chain of BRAF (P15056 457-717): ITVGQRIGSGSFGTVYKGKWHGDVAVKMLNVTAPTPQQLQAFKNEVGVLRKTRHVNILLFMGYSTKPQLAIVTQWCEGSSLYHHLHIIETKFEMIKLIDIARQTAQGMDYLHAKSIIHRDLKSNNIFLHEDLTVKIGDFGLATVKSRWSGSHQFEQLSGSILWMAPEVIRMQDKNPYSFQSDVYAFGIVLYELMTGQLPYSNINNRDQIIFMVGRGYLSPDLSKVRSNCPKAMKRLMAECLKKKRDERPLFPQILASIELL
Chain of RIOK3 (O14730 whole entry): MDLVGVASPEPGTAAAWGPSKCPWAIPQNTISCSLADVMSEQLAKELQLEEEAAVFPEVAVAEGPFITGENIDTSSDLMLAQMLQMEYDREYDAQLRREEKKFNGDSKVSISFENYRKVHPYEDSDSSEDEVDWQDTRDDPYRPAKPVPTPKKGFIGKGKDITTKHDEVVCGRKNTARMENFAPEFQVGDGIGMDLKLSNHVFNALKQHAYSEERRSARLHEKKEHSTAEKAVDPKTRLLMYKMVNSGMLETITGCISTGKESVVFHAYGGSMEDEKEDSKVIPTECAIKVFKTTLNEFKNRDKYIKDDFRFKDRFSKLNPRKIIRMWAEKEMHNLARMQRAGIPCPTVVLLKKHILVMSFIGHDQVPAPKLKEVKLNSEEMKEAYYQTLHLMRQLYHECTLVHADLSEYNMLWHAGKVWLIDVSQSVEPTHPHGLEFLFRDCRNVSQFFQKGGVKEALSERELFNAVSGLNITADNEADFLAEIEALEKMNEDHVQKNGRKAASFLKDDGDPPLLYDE

Question: Which results are given for `CSc1nc(N)cc(Oc2ccc(-c3nnc(Nc4cccc(C(F)(F)F)c4)[nH]3)cc2)n1` [Compound 6]?
Answer: % Control [1]: 71%; % Control [2]: 15%; % Control [3]: 100%; % Control [4]: 17%; % Control [5]: 100%; % Control [6]: 85%; EC50 [7]: 450 nM; EC50 [8]: 710 nM; EC50 [9]: 420 nM; EC50 [10]: 430 nM; times more potent than sorafenib [11]: 15-100 times; EC50 ([11]; read-out: EC50 in wide range of tumor lines): 100 to 600 nM; body weight ([12]; bid): no weight loss; mean vessel length/tumor volume ([12]; bid (vehicle 2.5)): 0.2 mm/mm^3; tumor growth ([12]; bid, from day 3, 12 days post SOI): completely suppressed; average tumor weight ([12]; resected on day 15, bid (vehicle 74.1 mg)): 26.7 mg; % Control [13]: 52%; EC50 [14]: 280 nM; EC50 [15]: 830 nM; % Control [16]: 91%; AUC0-12h ([17]; 50 mg/kg, ip, bid): 14700 ng·h/mL; T1/2 ([17]; 50 mg/kg, ip, bid): 11.5 h; AUC0-24h ([17]; 100 mg/kg, oral): 8700 ng·h/mL; Cmax (printed C.) ([17]; 100 mg/kg, oral): 4900 ng/mL; T1/2 ([17]; 100 mg/kg, oral): 6.1 h
